Data from ChEMBL document CHEMBL2010678, “Tigliane diterpene esters with IFN γ-inducing activity from the leaves of Aleurites fordii” (Bioorg Med Chem Lett, 2012).
Active and inactive are the calls of the source. The rule behind the calls is not given here.

Legend:
Assay type in all cases: functional, cell-based
NK92 [1] = experiment: Immunomodulatory activity in human NK92 cells assessed as induction of IFNgamma after 12 hrs by ELISA
NK92 [2] = experiment: Immunomodulatory activity in human NK92 cells assessed as induction of IFNgamma at 40 nM after 12 hrs by ELISA
NK92 [3] = experiment: Immunomodulatory activity in human NK92 cells assessed as induction of IFNgamma at 4 nM after 12 hrs by ELISA

Compound	Activity (NK92 [1])	Activity (NK92 [3])	other results
CCCCCCCCCCCCCCCC(=O)O[C@@H]1[C@@H](C)[C@@]2(O)[C@@H](C(=O)C(CO)=C[C@]3(O)C(=O)C(C)=C[C@@H]23)[C@@H]2C(C)(C)[C@]12OC(C)=O	inactive	–	–
CCCCCCCCCCCCCCCC(=O)O[C@@H]1[C@@H](C)[C@@]2(O)[C@@H](C(=O)C(CO)=C[C@]3(O)C(=O)C(C)=C[C@@H]23)[C@H]2[C@]1(OC(C)=O)[C@@]2(C)CO	–	–	Activity (NK92 [2]): Active
CCCCCCCCCCCCCCCC(=O)O[C@@H]1[C@@H](C)[C@@]2(O)[C@@H](C=C(CO)C[C@]3(O)C(=O)C(C)=C[C@@H]23)[C@@H]2C(C)(C)[C@]12OC(C)=O	–	Active	–
CCCCCCCCCCCCCC(=O)O[C@@H]1[C@@H](C)[C@@]2(O)[C@@H](C=C(CO)C[C@]3(O)C(=O)C(C)=C[C@@H]23)[C@@H]2C(C)(C)[C@]12OC(C)=O	Active	–	–
CCCCCCCCCCCCCCCC(=O)O[C@@H]1[C@@H](C)[C@@]2(O)[C@@H](C=C(CO)C[C@]3(O)C(=O)C(C)=C[C@@H]23)[C@H]2[C@]1(OC(C)=O)[C@@]2(C)CO	–	Active	–
CCCCCCCCCCCCCCCC(=O)O[C@@H]1[C@@H](C)[C@]2(O)[C@@H]3C=C(C)C(=O)[C@@H]3CC(CO)=C[C@H]2[C@H]2[C@]1(OC(C)=O)[C@@]2(C)CO	inactive	–	–
